{
  "source": "the supplement of paper PMC3974653",
  "note": "Counter-ions that a name gives are not always drawn.",
  "data": [
    {"tested_on": "MTT (mouse pheochromocytoma)", "assay": "IC50 of cell viability (ATP content)", "conditions": "(24 or 48 h)", "in_short": "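Library compounds were tested at 8 final concentrations (0.5 nM to 46 µM) on MTT mouse pheochromocytoma cells for 24 or 48 hrs, with readout by CellTiter-Glo ATP luminescence. Signals were normalised with positive-control wells at 100% and DMSO wells at 0%. IC50 values were obtained by a four-parameter logistic fit.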", "units": {"IC50 of cell viability": "µM"}, "values": [
      {"smiles": "COC1=C(C=CC=C1)N2CCN(CCCN\\C3=C\\C(=O)N(C)C(=O)N3C)CC2", "note": "[URAPIDIL]", "IC50 of cell viability": "> 46"},
      {"smiles": "CCOC(N)=O", "note": "[URETHANE]", "IC50 of cell viability": "> 46"},
      {"smiles": "Oc1nc(O)c2nc(O)[nH]c2n1.[NaH]", "note": "[URIC ACID]", "IC50 of cell viability": "> 46"},
      {"smiles": "COC1=C(OC)C(=O)C(C/C=C(\\C)CC/C=C(\\C)CC/C=C(\\C)CC/C=C(\\C)CC/C=C(\\C)CC/C=C(\\C)CC/C=C(\\C)CC/C=C(\\C)CC/C=C(\\C)CCC=C(C)C)=C(C)C1=O", "note": "[Ubidecarenone]", "IC50 of cell viability": "> 46"},
      {"smiles": "O=C(Nc1ccc(/C=C/c2ccc(NC(=O)c3cc([S+](=O)([O-])O)c4cccnc4c3O)cc2[S+](=O)([O-])O)c([S+](=O)([O-])O)c1)c1cc([S+](=O)([O-])O)c2cccnc2c1O", "note": "[Ubistatin A]", "IC50 of cell viability": "> 46"},
      {"smiles": "C=CCCCCCCCCC(=O)O", "note": "[Undecylenic acid]", "IC50 of cell viability": "> 46"},
      {"smiles": "CCCCCCCC(=O)CC[C@H]1[C@@H](C/C=C/CCCC(=O)OC(C)C)[C@@H](O)C[C@H]1O", "note": "[Unoprostone Isopropyl Ester]", "IC50 of cell viability": "> 46"},
      {"smiles": "Cl.COC1=C(C=CC=C1)N2CCN(CCCNC/3=C/C(=O)N(C)C(=O)N3C)CC2", "note": "[Urapidil hydrochloride]", "IC50 of cell viability": "> 46"},
      {"smiles": "NC(N)=O", "note": "[Urea]", "IC50 of cell viability": "> 46"},
      {"smiles": "Oc1nc(O)c2[nH]c(O)nc2n1", "note": "[Uric acid]", "IC50 of cell viability": "> 46"},
      {"smiles": "Cc1onc(-c2ccccc2)c1-c1ccc([S+](N)(=O)[O-])cc1", "note": "[VALDECOXIB]", "IC50 of cell viability": "> 46"},
      {"smiles": "CC(C)[C@H](N)C(=O)OCC(CO)OC[N]1C=NC2=C1\\N=C(\\N)NC2=O", "note": "(some centres not stated) [VALGANCICLOVIR HYDROCHLORIDE]", "IC50 of cell viability": "> 46"},
      {"smiles": "CC(C)[C@@H](N)C(=O)O", "note": "[VALINE]", "IC50 of cell viability": "> 46"},
      {"smiles": "C=C[C@@]1(C)C[C@H](OC(=O)CSC(C)(C)CNC(=O)[C@@H](N)C(C)C)[C@@]2(C)C(C)CC[C@@]3(CCC(=O)[C@@H]32)[C@H](C)[C@H]1O", "note": "(some centres not stated) [VALNEMULIN HYDROCHLORIDE]", "IC50 of cell viability": "> 46"},
      {"smiles": "CCCCC(=O)N(Cc1ccc(-c2ccccc2-c2nn[nH]n2)cc1)C(C(=O)O)C(C)C", "note": "(configuration not stated) [VALSARTAN]", "IC50 of cell viability": "> 46"},
      {"smiles": "CN[C@H](CC(C)C)C(=O)N[C@H]1C(=O)N[C@@H](CC(N)=O)C(=O)N[C@H]2C(=O)N[C@H]3C(=O)N[C@H](C(=O)N[C@H](C(=O)O)c4cc(O)cc(O)c4-c4cc3ccc4O)[C@H](O)c3ccc(c(Cl)c3)Oc3cc2cc(c3O[C@@H]2OC(CO)[C@@H](O)[C@H](O)[C@H]2O[C@H]2C[C@](C)(N)[C@H](O)[C@H](C)O2)Oc2ccc(cc2Cl)[C@H]1O", "note": "(some centres not stated) [VANCOMYCIN HYDROCHLORIDE]", "IC50 of cell viability": "> 46"},
      {"smiles": "O=C(O)CC/C=C\\CC[C@@H]1[C@@H](N2CCCCC2)[C@@H](O)C[C@@H]1OCc1ccc(-c2ccccc2)cc1", "note": "[VAPIPROST HYDROCHLORIDE]", "IC50 of cell viability": "> 46"},
      {"smiles": "CCCc1nc(C)c2c(=O)nc(-c3cc([S+](=O)([O-])N4CCN(CC)CC4)ccc3OCC)[nH]n12", "note": "[VARDENAFIL HYDROCHLORIDE]", "IC50 of cell viability": "> 46"},
      {"smiles": "Clc1ccc(Nc2nnc(Cc3ccncc3)c3ccccc23)cc1", "note": "[VATALANIBUM]", "IC50 of cell viability": "> 46"},
      {"smiles": "CC(=O)O[C@H]1C[C@@H]2CC[C@@H]3[C@H](CC[C@@]4(C)[C@H]3C[C@H]([N+]3(C)CCCCC3)[C@@H]4OC(C)=O)[C@@]2(C)C[C@@H]1N1CCCCC1", "note": "[VECURONIUM BROMIDE]", "IC50 of cell viability": "> 46"},
      {"smiles": "COc1ccc(C(CN(C)C)C2(O)CCCCC2)cc1", "note": "(configuration not stated) [VENLAFAXINE]", "IC50 of cell viability": "> 46"},
      {"smiles": "COc1ccc(CCN(C)CCCC(C#N)(c2ccc(OC)c(OC)c2)C(C)C)cc1OC", "note": "(configuration not stated) [VERAPAMIL]", "IC50 of cell viability": "> 46"},
      {"smiles": "C=CC(N)CCC(=O)O", "note": "(configuration not stated) [VIGABATRIN]", "IC50 of cell viability": "> 46"},
      {"smiles": "CC[C@@]12CCCN3CCc4c(n(c5ccccc45)[C@](O)(C(=O)OC)C1)C32", "note": "(some centres not stated) [VINCAMINE]", "IC50 of cell viability": "> 46"},
      {"smiles": "CCOC(=O)\\C1=C\\[C@@]2(CC)CCCN3CCC4=C([C@@H]23)[N]1C5=C4C=CC=C5", "note": "[VINPOCETINE]", "IC50 of cell viability": "> 46"},
      {"smiles": "CCOC(=O)\\C1=C\\[C@]2(CC)CCCN3CCC4=C([C@H]23)[N]1C5=C4C=CC=C5", "note": "[VINPOCETINE]", "IC50 of cell viability": "> 46"},
      {"smiles": "NCCCC(N)CC(=O)NC1CNC(=O)C(C2CC(O)NC(N)=N2)NC(=O)/C(=C/NC(N)=O)NC(=O)C(CO)NC(=O)C(CO)NC1=O", "note": "(configuration not stated) [VIOMYCIN SULFATE]", "IC50 of cell viability": "> 46"},
      {"smiles": "CCC1NC(=O)C(NC(=O)c2ncccc2O)C(C)OC(=O)C(c2ccccc2)NC(=O)C2CC(=O)CCN2C(=O)C(Cc2ccccc2)N(C)C(=O)C2CCCN2C1=O", "note": "(configuration not stated) [VIRGINIAMYCIN]", "IC50 of cell viability": "> 46"},
      {"smiles": "CC(C)[C@H](N)C(=O)OCCOCn1cnc2c(O)nc(N)nc21", "note": "[Valacyclovir hydrochloride]", "IC50 of cell viability": "> 46"},
      {"smiles": "CCCCC(=O)O", "note": "[Valeric acid]", "IC50 of cell viability": "> 46"},
      {"smiles": "CCCCC(=O)[O-]", "note": "[Valeric acid]", "IC50 of cell viability": "> 46"},
      {"smiles": "CCCC(CCC)C(=O)O", "note": "[Valproic acid]", "IC50 of cell viability": "> 46"},
      {"smiles": "CCCC(CCC)C(N)=O", "note": "[Valpromide]", "IC50 of cell viability": "> 46"},
      {"smiles": "CN[C@@H](CC(C)C)C(=O)N[C@@H]1C(=O)N[C@H](CC(N)=O)C(=O)N[C@H]2C(=O)N[C@@H]3C(=O)N[C@H](C(=O)N[C@H](C(=O)O)c4cc(O)cc(O)c4-c4cc3ccc4O)[C@H](O)c3ccc(c(Cl)c3)Oc3cc2cc(c3O[C@@H]2O[C@@H](CO)[C@@H](O)[C@@H](O)[C@H]2O[C@H]2C[C@](C)(N)[C@H](O)[C@H](C)O2)Oc2ccc(cc2Cl)[C@@H]1O", "note": "[Vancomycin hydrochloride]", "IC50 of cell viability": "> 46"},
      {"smiles": "CCN(CC)C(=O)c1ccc(O)c(OC)c1", "note": "[Vanillic acid diethylamide]", "IC50 of cell viability": "> 46"},
      {"smiles": "COc1cc(C=O)ccc1O", "note": "[Vanillin]", "IC50 of cell viability": "> 46"},
      {"smiles": "COc1cc(C(=S)N2CCOCC2)ccc1O", "note": "[Vanitiolida]", "IC50 of cell viability": "> 46"},
      {"smiles": "c1cnc2cc3c(cc2n1)[C@@H]1CNC[C@@H]3C1", "note": "[Varenicline Tartrate]", "IC50 of cell viability": "> 46"},
      {"smiles": "c1cnc2cc3c(cc2n1)C1CNCC3C1", "note": "[Varenicline]", "IC50 of cell viability": "> 46"},
      {"smiles": "Clc1ccc(Nc2nnc(Cc3ccncc3)c3ccccc23)cc1", "note": "[Vatalanib Dihydrochloride]", "IC50 of cell viability": "> 46"},
      {"smiles": "C=CCN1CCCC1CNC(=O)c1cc([S+](N)(=O)[O-])cc(OC)c1OC", "note": "(configuration not stated) [Veraliprida]", "IC50 of cell viability": "> 46"},
      {"smiles": "COc1ccc(/C=N/NC(=O)c2ccncc2)cc1OC", "note": "[Verazide]", "IC50 of cell viability": "> 46"},
      {"smiles": "CC=1C2=CC3=N/C(=C/C4=C(C(=C(N4)/C=C/5\\N=C(/C=C(/C1CCC(=O)O)\\N2)C(=C5C)CCC(=O)OC)C=C)C)/C6=CC=C([C@H]([C@]36C)C(=O)OC)C(=O)OC.CC1=C2/C=C/3\\N=C(/C=C/4\\C(=C(/C(/N4)=C/C5=N/C(=C\\C(=C1CCC(=O)OC)N2)/C(=C5C)CCC(=O)O)C=C)C)C6=CC=C([C@H]([C@]36C)C(=O)OC)C(=O)OC", "note": "[Verteporfin]", "IC50 of cell viability": "> 46"},
      {"smiles": "CC[C@@]1(O)CC2CN(CCC3=C([NH]C4=CC=CC=C34)[C@](C2)(C(=O)OC)C5=C(OC)C=C6N(C)C7[C@](O)([C@H](O)[C@]8(CC)\\C=C/CN9CC[C@@]7([C@H]89)C6=C5)C(N)=O)C1", "note": "(some centres not stated) [Vindesine Sulfate Salt]", "IC50 of cell viability": "> 46"},
      {"smiles": "C=CS(=O)(=O)[O-]", "note": "[Vinylsulfonic acid sodium salt solution]", "IC50 of cell viability": "> 46"},
      {"smiles": "O=C(O)CCCCC1SCC2NC(=O)NC21", "note": "(configuration not stated) [Vitamin B7]", "IC50 of cell viability": "> 46"},
      {"smiles": "CC(=O)Oc1c(C)c(C)c2c(c1C)CC[C@@](C)(CCC[C@H](C)CCC[C@H](C)CCCC(C)C)O2", "note": "[Vitamin E acetate]", "IC50 of cell viability": "> 46"},
      {"smiles": "CC(C)=CCC/C(C)=C\\CC/C(C)=C\\CC/C(C)=C\\CC1=C(C)C(=O)c2ccccc2C1=O", "note": "[Vitamin K2]", "IC50 of cell viability": "> 46"},
      {"smiles": "CC(c1ncncc1F)[C@](O)(Cn1cncn1)c1ccc(F)cc1F", "note": "(some centres not stated) [Voriconazole]", "IC50 of cell viability": "> 46"},
      {"smiles": "CC(=O)CC(c1ccccc1)C1C(=O)Oc2ccccc2C1=O", "note": "(configuration not stated) [WARFARIN POTASSIUM]", "IC50 of cell viability": "> 46"},
      {"smiles": "CC(=O)CC(C1=CC=CC=C1)C/2=C(O)/C3=CC=CC=C3OC2=O", "note": "(configuration not stated) [WARFARIN]", "IC50 of cell viability": "> 46"},
      {"smiles": "FC(F)(F)c1cccc(C2=CCN(CCc3ccc4ccccc4c3)CC2)c1", "note": "[XALIPRODEN HYDROCHLORIDE]", "IC50 of cell viability": "> 46"},
      {"smiles": "O=C(NCCNCC(O)COc1ccc(O)cc1)N1CCOCC1", "note": "(configuration not stated) [XAMOTEROL]", "IC50 of cell viability": "> 46"},
      {"smiles": "CC1=CC=CC(=C1N\\C2=N\\CCCS2)C", "note": "[XYLAZINE]", "IC50 of cell viability": "> 46"},
      {"smiles": "CN(CCO)CC(O)Cn1cnc2c1c(=O)n(C)c(=O)n2C.O=C(O)c1cccnc1", "note": "(configuration not stated) [Xanthinol niacinate]", "IC50 of cell viability": "> 46"},
      {"smiles": "O=C(O)c1ccccc1-c1ccc(C(F)(F)F)cc1", "note": "[Xenalipin]", "IC50 of cell viability": "> 46"},
      {"smiles": "Cc1cccc(C)c1NC(=O)NC1=CCCN1C", "note": "[Xilobam]", "IC50 of cell viability": "> 46"}
    ]}
  ]
}
